What all share (assay type): functional, cell-based
One test has as its system PANC-1. In words: Cytotoxicity against human PANC-1 cells assessed as inhibition of cell growth incubated for 72 hrs by SRB assay. To be noted: PANC-1, 72 h.
The subject of the next test is ASPC1. Description: Cytotoxicity against human ASPC1 cells assessed as inhibition of cell growth incubated for 72 hrs by SRB assay. To be noted: ASPC1, 72 h.
A further test relates to MDA-MB-231. In words: Cytotoxicity against human MDA-MB-231 cells assessed as inhibition of cell growth incubated for 72 hrs by SRB assay. To be noted: MDA-MB-231, 72 h.
Another test deals with BXPC-3. In words: Cytotoxicity against human BXPC-3 cells assessed as inhibition of cell growth incubated for 72 hrs by SRB assay. To be noted: BXPC-3, 72 h.

Data on five molecules can be found in ChEMBL document CHEMBL5120812, “Cytotoxic Nitrobenzoyl Sesquiterpenoids from an Antarctica Sponge-Derived Aspergillus insulicola” (J Nat Prod, 2022).

Where a name gives a salt, the structure may show the parent alone.

For the molecule `COc1cccc2c1C(=O)c1c(O)c3c(c(O)c1C2=O)C[C@@](O)(C(=O)CO)C[C@@H]3O[C@H]1C[C@H](N)[C@H](O)[C@H](C)O1` [DOXORUBICIN HYDROCHLORIDE], the IC50 in the test with PANC-1 came out at 0.9 µM; with ASPC1 it was 0.3 µM; in the test with MDA-MB-231 it was 0.2 µM.

In the case of `Nc1ccn([C@@H]2O[C@H](CO)[C@@H](O)C2(F)F)c(=O)n1` [GEMCITABINE], the concentration for half-maximal inhibition (IC50) stood at 8.3 µM with PANC-1, 7.5 µM in the test with ASPC1 and 0.04 µM with BXPC-3.

On to `C=C(CCCCCCCC(=O)OC[C@@]1(C)CCC[C@@]2(C)[C@H]1[C@H](OC(=O)c1ccc([N+](=O)[O-])cc1)C=C1C(=O)OC[C@@]12O)C(=O)O`, for which the IC50 in the test on PANC-1 worked out at 4.6 µM; in the test on ASPC1, 2.7 µM; with MDA-MB-231, 11.7 µM.

Take `C[C@]1(COC(=O)CCCCCCC/C=C/C(=O)O)CCC[C@]2(C)[C@H]3COC(=O)C3=C[C@@H](OC(=O)c3ccc([N+](=O)[O-])cc3)[C@@H]12`: the IC50 with PANC-1, with ASPC1 and with MDA-MB-231 was greater than 30 µM in each case.

In the case of `C=C(CCCCCCCC(=O)OC[C@@]1(C)CCC[C@]2(C)[C@H]3COC(=O)C3=C[C@@H](OC(=O)c3ccc([N+](=O)[O-])cc3)[C@@H]12)C(=O)O`, the IC50 in the test with PANC-1, with ASPC1 and in the test with MDA-MB-231 was greater than 30 µM each time.
